Measured values from article PMC9410094 (Marine Drugs, 2022).
In brackets after ≈: the same amount, converted by molar mass. Positions of bridges follow the written chain, without caps; N, C: chain ends. Residues, ends and D or L forms follow the SMILES beside them.

How the values were obtained:
Gram-positive bacteria = assay type: cell-based; conditions: 24 h
Experimental: (§1) The antimicrobial activity of the peptides was determined via the method of two-fold serial dilutions in sterile 96-well flat-bottom polystyrene microplates (Eppendorf #0030730011) in Mueller–Hinton broth (MHB, Sigma, Kawasaki, Kanagawa, Japan) supplemented with 0.9% NaCl. Bacterial cultures were grown in MHB at 37 °C until the culture reached an optical density OD600 of 1.0 and diluted with the broth so that to reach a final cell concentration of 10^6 CFU/mL. Then 50 μL of the test culture were added to 50 μL of aqueous solutions of the peptides, previously diluted in 0.1% sterilized bovine serum albumin (BSA) to reduce non-specific binding of the peptides to the surface of the plates. Next, the plate was incubated for 24 h at 37 °C and 950 rpm on the plate thermoshaker (Biosan). The values of the minimum inhibitory concentrations (MIC) were determined as the minimum concentration of the peptide, at which there is no culture growth. The results were expressed as the median values of three independent experiments performed in triplicate.

[1] = RP-HPLC retention time as measure of hydrophobicity; assay type: physicochemical; conditions: chromatographic, semipreparative RP-HPLC, C18 column, linear gradient 5 to 80% (v/v) acetonitrile in water with 0.1% TFA within 50 minutes; used as measure of hydrophobicity
Experimental: Table S1. Characteristics of the recombinant AMPs.
1 Mean Kyte–Doolittle hydrophobicity index (GRAVY) was calculated using the Expasy ProtParam tool. The maximum and minimum values of this index are +4.5 and -4.5 for poly-Ile and poly-Arg sequences, respectively. 2 Retention times were measured using semipreparative reversed-phase high-performance liquid chromatography (RP - HPLC) on a C18 column with a linear gradient from 5 to 80% ( v/v) acetonitrile in water containing 0.1% trifluoroacetic […]
acid (TFA) within 50 minutes. […]

human red blood cells = assay type: cell-based
Experimental: Figure 4 (A) Hemolytic effect on human red blood cells after 2 h incubation (hemoglobin release assay). (B) Cytotoxicity toward transformed human embryonic kidney cells after 20 h incubation (MTT-assay). The positive control used was 0.1% Triton X-100 and sterile PBS as a negative control. Melittin was used as an additional positive control. The data are presented as the mean ± SD of three independent experiments.
The hemolytic activity of compounds was performed using human red blood cells (hRBS) of healthy donor. Fresh blood was centrifuged to separate the erythrocyte fraction for 15 min at 500 g and washed three times with cold phosphate-buffered saline (PBS) (pH 7.4), after which an 8% (v/v) suspension of erythrocytes in PBS was prepared. Then, 50 µL of erythrocyte suspension was added to the test peptides, previously were dissolved in 50 µL of 0.1% BSA. The plate was incubated for 1.5 h at 37 °C and 950 rpm on the plate thermoshaker. After incubation, the plates were centrifuged for 15 min at 1000 g to settle intact erythrocytes. Next, aliquots of the supernatant were transferred to another plate to measure the amount of hemoglobin release by the absorbance of the solution at 405 nm. As “zero lysis” we used the supernatant obtained after centrifugation of erythrocytes incubated in a PBS solution without the addition of a peptide. As “100% lysis”, we used the supernatant obtained after centrifugation of erythrocytes incubated in a 0.1% Triton X-100, causing their complete lysis. The assays were conducted three times. The quantitative data were presented as an average means with standard deviations. Hemolysis(%)=OD405(compound)−OD405(zerolysis)/OD405(100%lysis)−OD405(zerolysis)×100%

Gram-negative bacteria = experiment: Geometric mean of MICs, Gram-negative panel; assay type: cell-based; conditions: geometric mean (GM) of MICs against the 14 Gram-negative strains of Figure 2
Experimental: as §1

SMILES	Minimum inhibitory concentration (MIC): Gram-positive Geometric mean (Gram-positive bacteria)	RP-HPLC Retention Time [1]	Hemolytic activity (in words) (human red blood cells)	Minimum inhibitory concentration (MIC): Gram-negative Geometric mean (Gram-negative bacteria)
CC[C@H](C)[C@@H]1NC(=O)[C@H](CCCNC(=N)N)NC(=O)[C@H](CCCNC(=N)N)NC(=O)CNC(=O)[C@H](CC(N)=O)NC(=O)[C@H](CCCNC(=N)N)NC(=O)[C@H](CC(C)C)NC(=O)[C@H](Cc2ccc(O)cc2)NC(=O)[C@@H]2CSSC[C@H](NC1=O)C(=O)N[C@@H](Cc1ccc(O)cc1)C(=O)N[C@@H](CCCNC(=N)N)C(=O)N[C@@H](CCCNC(=N)N)C(=O)N[C@H](C(=O)N[C@@H](CC(N)=O)C(=O)O)CSSC[C@H](NC(=O)[C@H](Cc1ccc(O)cc1)NC(=O)CN)C(=O)N[C@@H](Cc1ccccc1)C(=O)N[C@@H]([C@@H](C)O)C(=O)N[C@@H](C)C(=O)N2 [Ap6] (H-GYCFTACYLRNGRRICYRRCN-OH; disulfide 3-20, 7-16)	6.35 µM (≈ 16.4 µg/mL)	24.69 min	–	–
CC(C)C[C@@H]1NC(=O)[C@H](Cc2ccc(O)cc2)NC(=O)[C@@H]2CSSC[C@H](NC(=O)[C@H](C)NC(=O)[C@H](CCCNC(=N)N)NC(=O)[C@H](C(C)C)NC(=O)CNC(=O)[C@H](CC(N)=O)NC(=O)[C@H](CCCNC(=N)N)NC1=O)C(=O)N[C@@H](Cc1ccc(O)cc1)C(=O)N[C@@H](CCCNC(=N)N)C(=O)N[C@@H](CCCNC(=N)N)C(=O)N[C@H](C(=O)N[C@@H](CC(N)=O)C(=O)O)CSSC[C@H](NC(=O)[C@H](Cc1ccc(O)cc1)NC(=O)CN)C(=O)N[C@@H](Cc1ccccc1)C(=O)N[C@@H]([C@@H](C)O)C(=O)N[C@@H](C)C(=O)N2 [Ap7] (H-GYCFTACYLRNGVRACYRRCN-OH; disulfide 3-20, 7-16)	8 µM (≈ 19.9 µg/mL)	25.61 min	–	–
CC[C@H](C)[C@@H]1NC(=O)[C@H](CCCNC(=N)N)NC(=O)[C@H](C(C)C)NC(=O)CNC(=O)[C@H](CC(N)=O)NC(=O)[C@H](CCCNC(=N)N)NC(=O)[C@H](CC(C)C)NC(=O)[C@H](C)NC(=O)[C@@H]2CSSC[C@H](NC1=O)C(=O)N[C@@H](Cc1ccc(O)cc1)C(=O)N[C@@H](CCCNC(=N)N)C(=O)N[C@@H](CCCNC(=N)N)C(=O)N[C@H](C(=O)N[C@@H](CC(N)=O)C(=O)O)CSSC[C@H](NC(=O)[C@H](Cc1ccc(O)cc1)NC(=O)CN)C(=O)N[C@@H](Cc1ccccc1)C(=O)N[C@@H]([C@@H](C)O)C(=O)N[C@@H](C)C(=O)N2 [Ap1] (H-GYCFTACALRNGVRICYRRCN-OH; disulfide 3-20, 7-16)	10.08 µM (≈ 24.6 µg/mL)	26.05 min	–	–
CC(C)C[C@@H]1NC(=O)[C@H](Cc2ccc(O)cc2)NC(=O)[C@@H]2CSSC[C@H](NC(=O)[C@H](CCCNC(=N)N)NC(=O)[C@H](CCCNC(=N)N)NC(=O)[C@H](C(C)C)NC(=O)CNC(=O)[C@H](CC(N)=O)NC(=O)[C@H](CCCNC(=N)N)NC1=O)C(=O)N[C@@H](Cc1ccc(O)cc1)C(=O)N[C@@H](CCCNC(=N)N)C(=O)N[C@@H](CCCNC(=N)N)C(=O)N[C@H](C(=O)N[C@@H](CC(N)=O)C(=O)O)CSSC[C@H](NC(=O)[C@H](Cc1ccc(O)cc1)NC(=O)CN)C(=O)N[C@@H](Cc1ccccc1)C(=O)N[C@@H]([C@@H](C)O)C(=O)N[C@@H](C)C(=O)N2 [Ap8] (H-GYCFTACYLRNGVRRCYRRCN-OH; disulfide 3-20, 7-16)	16 µM (≈ 41.1 µg/mL)	24.34 min	–	–
CC[C@H](C)[C@@H]1NC(=O)[C@H](CCCNC(=N)N)NC(=O)[C@H](C(C)C)NC(=O)CNC(=O)[C@H](CC(N)=O)NC(=O)[C@H](CCCNC(=N)N)NC(=O)[C@H](C)NC(=O)[C@H](Cc2ccc(O)cc2)NC(=O)[C@@H]2CSSC[C@H](NC1=O)C(=O)N[C@@H](Cc1ccc(O)cc1)C(=O)N[C@@H](CCCNC(=N)N)C(=O)N[C@@H](CCCNC(=N)N)C(=O)N[C@H](C(=O)N[C@@H](CC(N)=O)C(=O)O)CSSC[C@H](NC(=O)[C@H](Cc1ccc(O)cc1)NC(=O)CN)C(=O)N[C@@H](Cc1ccccc1)C(=O)N[C@@H]([C@@H](C)O)C(=O)N[C@@H](C)C(=O)N2 [Ap3] (H-GYCFTACYARNGVRICYRRCN-OH; disulfide 3-20, 7-16)	1 µM (≈ 2.49 µg/mL)	25.47 min	ability to lyse hRBCs is stronger	–
CC[C@H](C)[C@@H]1NC(=O)[C@H](CCCNC(=N)N)NC(=O)[C@H](C(C)C)NC(=O)CNC(=O)[C@H](CC(N)=O)NC(=O)[C@H](CCCNC(=N)N)NC(=O)[C@H](CC(C)C)NC(=O)[C@H](CCCNC(=N)N)NC(=O)[C@@H]2CSSC[C@H](NC1=O)C(=O)N[C@@H](Cc1ccc(O)cc1)C(=O)N[C@@H](CCCNC(=N)N)C(=O)N[C@@H](CCCNC(=N)N)C(=O)N[C@H](C(=O)N[C@@H](CC(N)=O)C(=O)O)CSSC[C@H](NC(=O)[C@H](Cc1ccc(O)cc1)NC(=O)CN)C(=O)N[C@@H](Cc1ccccc1)C(=O)N[C@@H]([C@@H](C)O)C(=O)N[C@@H](C)C(=O)N2 [Ap2] (H-GYCFTACRLRNGVRICYRRCN-OH; disulfide 3-20, 7-16)	12.7 µM (≈ 32 µg/mL)	24.29 min	–	–
CC[C@H](C)[C@@H]1NC(=O)[C@H](CCCNC(=N)N)NC(=O)[C@H](C)NC(=O)CNC(=O)[C@H](CC(N)=O)NC(=O)[C@H](CCCNC(=N)N)NC(=O)[C@H](CC(C)C)NC(=O)[C@H](Cc2ccc(O)cc2)NC(=O)[C@@H]2CSSC[C@H](NC1=O)C(=O)N[C@@H](Cc1ccc(O)cc1)C(=O)N[C@@H](CCCNC(=N)N)C(=O)N[C@@H](CCCNC(=N)N)C(=O)N[C@H](C(=O)N[C@@H](CC(N)=O)C(=O)O)CSSC[C@H](NC(=O)[C@H](Cc1ccc(O)cc1)NC(=O)CN)C(=O)N[C@@H](Cc1ccccc1)C(=O)N[C@@H]([C@@H](C)O)C(=O)N[C@@H](C)C(=O)N2 [Ap5] (H-GYCFTACYLRNGARICYRRCN-OH; disulfide 3-20, 7-16)	5.04 µM (≈ 12.6 µg/mL)	25.53 min	–	–
CC[C@H](C)[C@@H]1NC(=O)[C@H](CCCNC(=N)N)NC(=O)[C@H](C)NC(=O)CNC(=O)[C@H](CC(N)=O)NC(=O)[C@H](CCCNC(=N)N)NC(=O)[C@H](CCCNC(=N)N)NC(=O)[C@H](Cc2ccc(O)cc2)NC(=O)[C@@H]2CSSC[C@H](NC1=O)C(=O)N[C@@H](Cc1ccc(O)cc1)C(=O)N[C@@H](CCCNC(=N)N)C(=O)N[C@@H](CCCNC(=N)N)C(=O)N[C@H](C(=O)N[C@@H](CC(N)=O)C(=O)O)CSSC[C@H](NC(=O)[C@H](Cc1ccc(O)cc1)NC(=O)CN)C(=O)N[C@@H](Cc1ccccc1)C(=O)N[C@@H]([C@@H](C)O)C(=O)N[C@@H](C)C(=O)N2 [Ap10] (H-GYCFTACYRRNGARICYRRCN-OH; disulfide 3-20, 7-16)	2.52 µM (≈ 6.41 µg/mL)	24.41 min	–	0.31 µM (≈ 0.788 µg/mL)
